This is an account of results in ChEMBL document CHEMBL1129258, “Synthesis and structure-activity relationships of 2-pyridones: a novel series of potent DNA gyrase inhibitors as antibacterial agents” (J Med Chem, 1996).

Converted amounts (≈) assume the structure as drawn.

Series [1] in a line: In vitro antibacterial activity against gram-negative organism Pseudomonas aeruginosa DPHD-2862. It counts as functional.
In series [2] the target is T1, DNA gyrase (Escherichia coli) (UniProt P0AES6+P0AES4). The settings on record: Escherichia coli K-12.
Description: Concentration which causes 50% of the gyrase (Escherichia coli H560)-mediated maximal DNA cleavage.
Series [3] addresses T1, DNA gyrase (Escherichia coli). The series can be described thus: In vitro antibacterial against gram-negative organism Escherichia coli JUHL. The settings on record: Escherichia coli K-12. In kind it is functional.
The target of series [4] is T2, DNA gyrase (Staphylococcus aureus) (UniProt P0A0K8+P20831). The series can be described thus: In vivo efficacy against Staphylococcus aureus NCTC-10649M after subcutaneous administration. It counts as functional, organism-based.
Another series deals with Streptococcus pyogenes. The series can be described thus: In vitro antibacterial activity against gram-positive organism Streptococcus pyogenes EES61. It counts as functional. To be noted: Streptococcus pyogenes; read-out: MIC.
The nature of series [5]: In vivo efficacy against Pseudomonas aeruginosa 5007 after subcutaneous administration. In kind it is functional.
The target of series [6] is T1, DNA gyrase (Escherichia coli). The series can be described thus: In vitro antibacterial activity against gram-negative organism Klebsiella pneumoniae ATCC 8045. In kind it is functional.
The target in series [7] is T2, DNA gyrase (Staphylococcus aureus). The series can be described thus: In vitro antibacterial activity against gram-positive organism Staphylococcus aureus ATCC 6538p. It counts as functional.
Series [8] shares this target. The series can be described thus: (§1) In vivo efficacy against Staphylococcus aureus NCTC-10649M after oral administration. It counts as functional, organism-based.
For series [9], the target named is T1, DNA gyrase (Escherichia coli). The series can be described thus: In vitro antibacterial activity against gram-negative organism Prov. stuartii CMX-640. In kind it is functional. To be noted: Providencia stuartii.
Series [10] shares this target. The series can be described thus: In vivo efficacy against Escherichia coli JUHL after oral administration. In kind it is functional, organism-based. The settings on record: Escherichia coli K-12.
A short description of series [11]: In vitro antibacterial activity against gram-negative organism Pseudomonas aeruginosa 5007. It counts as functional.
For series [12], the system named is Streptococcus pneumoniae. In words: (§2) In vivo efficacy against Strep. administration. It counts as functional.
For series [13], the system named is Pseudomonas aeruginosa. In words: In vivo efficacy against Pseudomonas aeruginosa 5007 following p.o. administration.
Series [14] deals with T1, DNA gyrase (Escherichia coli). The series can be described thus: In vitro antibacterial activity against gram-positive organism Streptococcus bovis A-5169. To be noted: Streptococcus equinus. It counts as functional.
Series [15] concerns the target T2, DNA gyrase (Staphylococcus aureus). In words: In vitro antibacterial activity against gram-positive organism Staphylococcus aureus 1775. It counts as functional.
Series [16] in a line: Maximum plasma concentration in rats after an oral dose of 5 mg/kg. The settings on record: rat.
Series [17] has as its target T1, DNA gyrase (Escherichia coli). The series can be described thus: In vivo efficacy against Escherichia coli JUHL by subcutaneous administration. It counts as functional, organism-based. The settings on record: Escherichia coli K-12.
Series [18] deals with T2, DNA gyrase (Staphylococcus aureus). The series can be described thus: In vitro antibacterial activity against gram-positive organism Staphylococcus aureus NCTC-10649M. It counts as functional.
Series [19] addresses T1, DNA gyrase (Escherichia coli). In words: In vitro antibacterial activity against gram-negative organism […] ATCC 13048. It counts as functional. To be noted: Enterobacter aerogenes.
The nature of series [20]: in vivo. The settings on record: rat, plasma, po, 5 mg/kg.
A short description of another series: physchem. To be noted: phosphate buffer, pH 7.4.
In series [21] the target is T1, DNA gyrase (Escherichia coli). The series can be described thus: In vitro antibacterial activity against gram-positive organism Enterococcus faecium ATCC 8043. It counts as functional.
The test system of series [22] is Streptococcus pneumoniae. In words: In vivo efficacy against Strep. administered. It counts as functional.
A short description of series [23]: in vivo. To be noted: rat, po, 5 mg/kg.
Description: Oral bioavailability in rat (dose 5 mg/kg)
For series [24], the system named is Pseudomonas aeruginosa. The series can be described thus: In vivo efficacy against Pseudomonas aeruginosa 5007 by orally administered. In kind it is functional.
The next series has as its system Staphylococcus aureus. The series is described as §1. In kind it is functional.
Series [25] in a line: in vivo. The settings on record: rat, plasma, po, 5 mg/kg. The source holds these as a separate data set.
The next series deals with Streptococcus equinus. The series can be described thus: In vitro antibacterial activity against gram-positive organism Strep. bovis A-5169. It counts as functional.
Series [26] has as its system Streptococcus pneumoniae. The description is as §2. It counts as functional. This is another data set of the same source.
Setting [27] is: Pseudomonas aeruginosa, read-out: MIC.
The mark [28] stands for this setting: Pseudomonas aeruginosa, sc, read-out: ED50.
Setting [29] is: Streptococcus pneumoniae, read-out: ED50.

T2 sequence (P0A0K8 2-644 limits assumed): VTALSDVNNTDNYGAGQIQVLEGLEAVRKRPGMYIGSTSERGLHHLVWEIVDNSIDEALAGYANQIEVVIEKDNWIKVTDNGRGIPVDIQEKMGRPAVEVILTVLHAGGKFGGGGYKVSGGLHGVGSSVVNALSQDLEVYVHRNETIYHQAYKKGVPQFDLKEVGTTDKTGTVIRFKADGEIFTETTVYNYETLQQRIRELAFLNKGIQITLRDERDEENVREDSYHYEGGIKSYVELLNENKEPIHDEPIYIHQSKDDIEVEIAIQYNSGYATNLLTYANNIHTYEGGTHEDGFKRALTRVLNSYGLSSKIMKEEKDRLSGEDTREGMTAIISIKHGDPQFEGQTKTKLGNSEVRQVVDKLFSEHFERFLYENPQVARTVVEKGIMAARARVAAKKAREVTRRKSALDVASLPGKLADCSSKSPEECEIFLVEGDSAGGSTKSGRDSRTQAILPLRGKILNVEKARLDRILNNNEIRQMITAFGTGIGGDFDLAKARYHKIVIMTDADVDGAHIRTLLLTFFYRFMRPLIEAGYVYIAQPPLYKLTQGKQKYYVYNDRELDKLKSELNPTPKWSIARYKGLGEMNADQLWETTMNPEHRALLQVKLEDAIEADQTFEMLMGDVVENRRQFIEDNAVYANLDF
T2 sequence (P20831 whole entry partner): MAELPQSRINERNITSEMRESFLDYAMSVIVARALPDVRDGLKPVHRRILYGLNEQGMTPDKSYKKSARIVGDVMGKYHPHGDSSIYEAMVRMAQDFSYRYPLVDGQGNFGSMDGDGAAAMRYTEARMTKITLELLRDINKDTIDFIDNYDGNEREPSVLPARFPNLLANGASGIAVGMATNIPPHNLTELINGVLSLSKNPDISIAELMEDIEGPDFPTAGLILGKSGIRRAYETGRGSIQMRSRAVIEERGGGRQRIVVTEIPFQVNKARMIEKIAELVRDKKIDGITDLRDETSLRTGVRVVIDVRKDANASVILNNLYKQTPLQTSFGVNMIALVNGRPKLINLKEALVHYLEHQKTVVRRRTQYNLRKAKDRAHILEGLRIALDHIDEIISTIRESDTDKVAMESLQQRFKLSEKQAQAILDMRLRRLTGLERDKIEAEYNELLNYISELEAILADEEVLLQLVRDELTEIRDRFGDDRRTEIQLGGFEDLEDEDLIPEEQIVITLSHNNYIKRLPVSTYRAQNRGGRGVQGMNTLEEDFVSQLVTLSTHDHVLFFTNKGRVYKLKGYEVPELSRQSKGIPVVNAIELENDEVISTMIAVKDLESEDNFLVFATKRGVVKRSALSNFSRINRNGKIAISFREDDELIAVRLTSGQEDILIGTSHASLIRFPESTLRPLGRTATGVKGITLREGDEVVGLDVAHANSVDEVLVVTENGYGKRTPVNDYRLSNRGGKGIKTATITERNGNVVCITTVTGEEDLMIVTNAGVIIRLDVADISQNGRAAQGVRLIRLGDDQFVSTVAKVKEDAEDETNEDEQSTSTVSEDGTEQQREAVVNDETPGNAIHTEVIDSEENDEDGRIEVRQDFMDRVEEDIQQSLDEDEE
Description for physchem: Aqueous solubility in pH 7.4 phosphate buffer (0.05 M) at 37 degree C

By ED50 is commonly meant the dose at which the effect has come halfway, by size or by number of responders. The term Cmax denotes the maximum level reached in the sampled fluid or tissue. In general, half-life refers to the time needed for the level to fall by half in the phase considered. A high value points to slow decline. Broadly, the solubility is how much of the substance goes into solution per volume. Higher therefore signals much dissolved substance. Usually bioavailability stands for the share of a dose that reaches the circulation, judged against a reference dose that is usually intravenous. Turning to `Cc1c(N2CC[C@@H]3CNC[C@@H]32)c(F)cn2c(=O)c(C(=O)O)cc(C3CC3)c12`, the MIC in series [1] (setting [27]) is 3.1 µg/mL (≈ 8.35 µM); in [3] it was 0.001 µg/mL (≈ 0.00269 µM); in the series on Streptococcus pyogenes, 0.1 µg/mL (≈ 0.269 µM); in series [6], 0.02 µg/mL (≈ 0.0538 µM); in [7], 0.05 µg/mL (≈ 0.135 µM); in series [9] it was 1.56 µg/mL (≈ 4.2 µM). The MIC is 0.39 µg/mL (≈ 1.05 µM) in series [11] (setting [27]); 0.1 µg/mL (≈ 0.269 µM) in [14]; 6.2 µg/mL (≈ 16.7 µM) in series [15]; 0.05 µg/mL (≈ 0.135 µM) in series [18]; 0.05 µg/mL (≈ 0.135 µM) in series [19]; 0.1 µg/mL (≈ 0.269 µM) in series [21]. In series [2], this compound registered a CC50 of 0.4 µg/mL (≈ 1.08 µM). Further, the 50% effective dose (ED50) in series [4] is 1.8 mg/kg; in series [5] (setting [28]), more than 8 mg/kg; in series [8], 3.6 mg/kg; in [10], 3.6 mg/kg; with Streptococcus pneumoniae [12] (setting [29]), 9.5 mg/kg; in the series with Pseudomonas aeruginosa [13], 42.8 mg/kg. For the same compound, the ED50 in series [17] amounted to 1.1 mg/kg; in the series with Streptococcus pneumoniae [22] (setting [29]) it was 6.4 mg/kg. Also, in series [16], the peak level (Cmax) was 330 ng/mL. For the same compound, in the series “in vivo [20]”, the half-life is 5.7 h. This compound had a solubility in “physchem” of 1940 µg/mL (≈ 5220 µM). For the same compound, in “in vivo [23]”, the bioavailability amounted to 41%.

For the compound `Cc1c(N2C[C@@H]3CCN[C@@H]3C2)c(F)cn2c(=O)c(C(=O)O)cc(C3CC3)c12` (stereo in doubt; (S,S)45o), the MIC in series [1] was 3.1 µg/mL (≈ 8.35 µM); in series [11], 0.2 µg/mL (≈ 0.538 µM). The ED50 in [5] is 18 mg/kg; in the series with Pseudomonas aeruginosa [24], more than 50 mg/kg; in the series with Streptococcus pneumoniae [12] it was 11.2 mg/kg; with Streptococcus pneumoniae [22], 2.3 mg/kg.

`Cc1c(N2CC[C@@H]([C@@H](C)N)C2)c(F)cn2c(=O)c(C(=O)O)cc(C3CC3)c12`: the ED50 was 1.1 mg/kg with Staphylococcus aureus; less than 0.2 mg/kg in series [4]; 5.4 mg/kg in series [5] (setting [28]); 5.7 mg/kg in [10]; 24.4 mg/kg in the series on Pseudomonas aeruginosa [13]; 0.5 mg/kg in series [17]. In addition, the MIC was determined as 6.2 µg/mL (≈ 16.6 µM) in [1] (setting [27]); 0.001 µg/mL (≈ 0.00268 µM) in series [3]; 0.005 µg/mL (≈ 0.0134 µM) in the series with Streptococcus pyogenes; 0.001 µg/mL (≈ 0.00268 µM) in series [6]; 0.002 µg/mL (≈ 0.00536 µM) in [7]; 0.78 pug ml-1 in series [9]. Besides, the MIC was 0.2 µg/mL (≈ 0.536 µM) in series [11] (setting [27]); 0.01 µg/mL (≈ 0.0268 µM) in series [14]; 0.39 µg/mL (≈ 1.04 µM) in [15]; 0.002 µg/mL (≈ 0.00536 µM) in [18]; 0.01 µg/mL (≈ 0.0268 µM) in series [19]; 0.01 µg/mL (≈ 0.0268 µM) in series [21]. The CC50 in [2] was 0.4 µg/mL (≈ 1.07 µM).

Turning to `Cc1c(N2C[C@@H](N)C[C@@H]2C)c(F)cn2c(=O)c(C(=O)O)cc(C3CC3)c12`, the MIC in [1] (setting [27]) was 3.1 µg/mL (≈ 8.63 µM); in series [3] it was 0.005 µg/mL (≈ 0.0139 µM); with Streptococcus pyogenes, 0.05 µg/mL (≈ 0.139 µM); in series [6], 0.01 µg/mL (≈ 0.0278 µM); in [7] it was 0.01 µg/mL (≈ 0.0278 µM); in series [9] it was 0.78 µg/mL (≈ 2.17 µM). For the same compound, the MIC in series [11] (setting [27]) amounted to 0.2 µg/mL (≈ 0.556 µM); in series [14] it was 0.05 µg/mL (≈ 0.139 µM); in series [15], 1.56 µg/mL (≈ 4.34 µM); in series [18], 0.01 µg/mL (≈ 0.0278 µM); in [19], 0.05 µg/mL (≈ 0.139 µM); in series [21], 0.1 µg/mL (≈ 0.278 µM). Also, the CC50 in series [2] came out at 0.2 µg/mL (≈ 0.556 µM). The compound further showed a half-life in “in vivo [25]” of 1.6 h. Moreover, the highest level in series [16] (Cmax) was 740 ng/mL. The compound also had a solubility in “physchem” of 70 µg/mL (≈ 195 µM). Besides, the bioavailability in the series “in vivo [23]” turned out to be 44%.

In the case of `Cc1c(N2CC[C@@H](O)C2)c(F)cn2c(=O)c(C(=O)O)cc(C3CC3)c12`, the MIC was found to be 25 µg/mL (≈ 72.2 µM) in [1] (setting [27]); 0.1 µg/mL (≈ 0.289 µM) in series [3]; 0.02 µg/mL (≈ 0.0577 µM) in series [6]; 0.02 µg/mL (≈ 0.0577 µM) in series [7]; 0.78 µg/mL (≈ 2.25 µM) in series [9]; 0.78 µg/mL (≈ 2.25 µM) in [11] (setting [27]). Moreover, the MIC in series [15] stood at 1.56 µg/mL (≈ 4.5 µM); against Streptococcus equinus, 0.2 µg/mL (≈ 0.577 µM); in series [18], 0.02 µg/mL (≈ 0.0577 µM); in [19] it was 0.2 µg/mL (≈ 0.577 µM); in series [21] it was 0.2 µg/mL (≈ 0.577 µM). Besides, the ED50 is 6.1 mg/kg in series [4], 11.2 mg/kg in [8] and more than 2 mg/kg in the series on Streptococcus pneumoniae [26].
